Data: publication PMC10147046, “Assessment of Various Food Proteins as Structural Materials for Delivery of Hydrophobic Polyphenols Using a Novel Co-Precipitation Method” (Molecules, 2023)
Values after ≈ are worked out from the molar mass of the structure shown.

Legend:
[1] = source not given; cited from earlier work
[2] = Solubility of the powders in water (phosphate buffer), HPLC quantification; format: physicochemical; conditions: for solubility at 24 h: aqueous buffer, thermodynamic from solid; for Increase in solubility of co-precipitate compared to intrinsic (untreated) solubility: polyphenol co-precipitated with protein and trehalose vs untreated, phosphate buffer pH 7.0
Method: To measure the amount of the polyphenol entrapped inside the NaCas, SPI, and WPI precipitates (entrapment efficiency), the concentration of each polyphenol in the supernatants was determined by high-performance liquid chromatography (HPLC) following different methods (depending on the polyphenol). The HPLC instrument was equipped with a UV/visible diode array detector (Agilent Technologies, 1200 Series, Santa Clara, CA, USA). The column was a reverse-phase PrevailTM C18 with dimensions of 4.6 cm × 150 mm and 5 µm particle size (Grace Alltech, Columbia, MD, USA). The composition and conditions of the mobile phase varied based on the method used for the quantification of each polyphenol. […] The sample injection volume for all cases was 20 µL. Different polyphenols were detected at different wavelengths and different retention times; e.g., naringenin and rutin were detected at 10.15 and 4.8 min, respectively. For the calibration of the HPLC column and quantification of each polyphenol in the samples, standard solutions of various concentrations of pure polyphenols (94 to 98%) in the mobile phase were used. […] Thermo Scientific, Waltham, MA, USA) before injecting them into the HPLC column. […] The dispersibility of the lyophilized powders and the untreated samples was measured according to the method from Ji et al.. For this purpose, we used a Malvern Mastersizer 2000 (Malvern Instruments Ltd., Worcestershire, UK), which was equipped with a 4 mW He–Ne laser operating apparatus. […] To avoid artifacts (large lumps) from the initial dispersion, the Time 0 min measurement was removed, and the data from 2 to 60 min were collected. A separate normalization was applied to the obscuration indices across the dispersion period for each sample by dividing each index by the maximum index. Finally, the volume distribution data were multiplied by the normalized obscuration index at each time point.

[3] = Dispersibility in water: particle size distribution over time (Malvern Mastersizer 2000); format: physicochemical; conditions: for Size of additional significant particle population after treatment: distribution at least bi-modal; for Dispersibility of untreated polyphenol: untreated powder, phosphate buffer pH 7.0, over 60 min; for Particle size after treatment in the absence of trehalose: polyphenol precipitate without protein and without trehalose; for Particle size reached over time, WPI co-precipitates: over 60 min
Method: The particle size distribution of untreated (control) polyphenols vs. the polyphenols co-precipitated with NaCas, SPI, and WPI after dispersion in phosphate buffer (pH 7.0) is presented in Figure 4. As stated in Section 3.6, in the case of the current research, we measured dispersibility based on the decrease in the size of particles dispersed in the aqueous medium over time.
The dispersibility of the lyophilized powders and the untreated samples was measured according to the method from Ji et al.. For this purpose, we used a Malvern Mastersizer 2000 (Malvern Instruments Ltd., Worcestershire, UK), which was equipped with a 4 mW He–Ne laser operating apparatus. To start with, about 30 mg of each powder was added to the dispersion unit containing phosphate buffer (10 mM NaH2PO4, pH 7.0), and this mixture was stirred (2000 rpm) for 60 min. The particle size distribution obscuration values of each sample were read at 2 min intervals and a wavelength of 632.8 nm. To avoid artifacts (large lumps) from the initial dispersion, the Time 0 min measurement was removed, and the data from 2 to 60 min were collected. A separate normalization was applied to the obscuration indices across the dispersion period for each sample by dividing each index by the maximum index. Finally, the volume distribution data were multiplied by the normalized obscuration index at each time point.

[4] = parameters: method as in PMID 35056844; conditions: rutin dissolved in solution maintained at pH 11.0 for 30 min; cited from earlier work
[5] = reference compounds of Table 1; one cell merged over all four solubility columns; no source or measurement printed; cited from earlier work
[6] = parameters: method as in PMID 30724197; conditions: cited from earlier work
[7] = untreated (commercial) polyphenol, phosphate buffer pH 7.0, 25 °C
[8] = polyphenol precipitate without protein, absence of trehalose

Size of additional significant particle population after treatment [3, 8] | Compound | Solubility in ethanol [1] | solubility at 24 h [2, 7] | Dispersibility of untreated polyphenol [3] | further results
~0.1 µm | Oc1cc(O)c2c(c1)O[C@H](c1ccc(O)c(O)c1)[C@@H](O)C2 [Catechin, (+)-catechin] | ~100000 µg/mL (≈ 345000 µM) | 1.5 µg/mL (≈ 5.17 µM) | showed some dispersibility | Increase in solubility of co-precipitate compared to intrinsic (untreated) solubility [2]: ~10 fold
– | COc1ccc([C@@H]2CC(=O)c3c(O)cc(O[C@@H]4O[C@H](CO[C@@H]5O[C@@H](C)[C@H](O)[C@@H](O)[C@H]5O)[C@@H](O)[C@H](O)[C@H]4O)cc3O2)cc1O [Hesperidin] | ~1000 µg/mL (≈ 1640 µM) | 2 µg/mL (≈ 3.28 µM) | None of the untreated forms of rutin, naringenin, hesperidin, and curcumin (Figure 4) showed any significant dispersibility over 60 min | Particle size after treatment in the absence of trehalose [3]: 30 μm; Particle size, untreated polyphenol ([3]; untreated powder dispersed in phosphate buffer): ~ 60 μm
~0.1 µm | O=C1C[C@@H](c2ccc(O)cc2)Oc2cc(O)cc(O)c21 [Naringenin, (S)-naringenin] | ~1000 µg/mL (≈ 3670 µM) | 2 µg/mL (≈ 7.35 µM) | None of the untreated forms of rutin, naringenin, hesperidin, and curcumin (Figure 4) showed any significant dispersibility over 60 min | Particle size reached over time, WPI co-precipitates [3]: less than 1 μm; Particle size after treatment in the absence of trehalose [3]: ~ 6 μm
– | Oc1ccc(-c2ccc(O)cc2O)c(O)c1 [[1,1′-Biphenyl]-2,2′,4,4′-tetrol] | – | – | – | Solubility (reference compounds, in words) [5]: low?
– | O=c1c(-c2ccc(O)cc2)coc2cc(O)ccc12 [daidzein] | – | – | – | Enhancement of daidzein solubility ([6]; WPI nanoparticles formed in the presence of daidzein): at least 2 fold; Stability ([6]; WPI-daidzein nanoparticles, 4 °C): stable at 4 °C for at least two months
– | Curcumin | ~10000 µg/mL | – | None of the untreated forms of rutin, naringenin, hesperidin, and curcumin (Figure 4) showed any significant dispersibility over 60 min | Increase in solubility of co-precipitate compared to intrinsic (untreated) solubility [2]: ~10 fold; Solubility (Untreated) [2, 7]: 8 µg/mL; Size of minor particle population after treatment [3, 8]: ~ 160 μm

Compound | Size of additional significant particle population after treatment [3, 8] | Solubility in ethanol [1] | solubility at 24 h [2, 7] | Dispersibility of untreated polyphenol [3] | further results
C[C@@H]1O[C@@H](OC[C@H]2O[C@@H](Oc3c(-c4ccc(O)c(O)c4)oc4cc(O)cc(O)c4c3=O)[C@H](O)[C@@H](O)[C@@H]2O)[C@H](O)[C@H](O)[C@H]1O [Rutin] | ~0.1 µm | about 4 mg/mL | 110 µg/mL (≈ 180 µM) | None of the untreated forms of rutin, naringenin, hesperidin, and curcumin (Figure 4) showed any significant dispersibility over 60 min | Particle size reached over time, WPI co-precipitates [3]: less than 1 μm; Size of smaller particles favoured over time, NaCas co-precipitate ([3]; co-precipitate with NaCas, redistribution of particle size over time): 0.1 μm; Effect of treatment (no protein) on dispersibility ([3]; treated polyphenol precipitates with or without trehalose): Treatment improved the dispersibility only of rutin; Degradation [4]: approximately 10%
